Assay results as given in US20250009942A1, “BIODEGRADABLE PIEZOELECTRIC NANOFIBERS” (University of Connecticut, priority 2022, published 2025).

Conditions: corona discharge, 20 kV
Excerpt: Ionized air particles around the needle were accelerated and bombard towards the sample surface, causing electric field across the substrate. […] Later, the samples (n=5 for each group) were positioned on an anti-static mat (Bertech, 1059-2X3BKT) to increase the accuracy of the measurement. The voltmeter was grounded and was held 5 mm from the sample surface.
The particles 130, 190 were placed on a ground plate and a high voltage (20 kV) was applied between the plate and the top positive nozzle.

NCC(=O)O [glycine particles, glycine]
charge accumulation rate and surface charge density after poling: considerably higher than those before poling
